Experimental data from US9528155B2, “In vitro method for determining immunotoxicity of a compound” (UNIVERSITEIT MAASTRICHT, priority 2012, dated 2016).
Like-named read-outs stand apart in the source and are kept apart here.

Columns and labels:
Format in all cases: cell-based, human
CRIM1 = assay: Fluidigm multiplex real-time quantitative PCR of marker gene CRIM1 in exposed Jurkat cells
ABCA1 = assay: Fluidigm multiplex real-time quantitative PCR of marker gene ABCA1 in exposed Jurkat cells
CHAC1 = assay: Fluidigm multiplex real-time quantitative PCR of marker gene CHAC1 in exposed Jurkat cells
HMGCS1 = assay: Fluidigm multiplex real-time quantitative PCR of marker gene HMGCS1 in exposed Jurkat cells
[1] = Jurkat cells, 6 h exposure at sub-cytotoxic exposure conc. of Tables 1/2, vs vehicle control, N=3, below -1.0 = underexpression

Row | Compound | Expression levels of marker genes upon exposure: CRIM1 (Fold Change) (CRIM1) | Expression levels of marker genes upon exposure: ABCA1 (Fold Change) (ABCA1) | Expression levels of marker genes upon exposure: CHAC1 (Fold Change) (CHAC1; [1]) | Expression levels of marker genes upon exposure: CRIM1 (Fold Change) (CRIM1; [1]) | Expression levels of marker genes upon exposure: HMGCS1 (Fold Change) (HMGCS1; [1]) | Expression levels of marker genes upon exposure: ABCA1 (Fold Change) (ABCA1; [1]) | Expression levels of marker genes upon exposure: HMGCS1 (Fold Change) (HMGCS1) | Expression levels of marker genes upon exposure: CHAC1 (Fold Change) (CHAC1)
1 | O=[N+]([O-])c1ccc2ccc3cccc4ccc1c2c34 [1-NPR, 1-Nitropyrene] | 1.3 ± 1.6 | 1.3 ± 1.2 |  |  |  |  |  | 
2 | Sc1ncnc2nc[nH]c12 [6MP, 6-mercaptopurine] |  |  | 1.8 ± 1.1 | 1.0 ± 0.6 |  |  |  | 
3 | CC1(C)S[C@@H]2[C@H](NC(=O)[C@H](N)c3ccccc3)C(=O)N2[C@H]1C(=O)O [AMP, ampicillin] |  |  |  | 1.2 ± 1.1 | 1.4 ± 0.3 |  |  | 
4 | Cn1cnc([N+](=O)[O-])c1Sc1ncnc2nc[nH]c12 [AZA, azathioprine] |  |  | 2.3 ± 2.1 | 1.8 ± 1.0 | 1.1 ± 0.2 |  |  | 
5 | O=[N+]([O-])[O-].[Ag+] [AgNO3, silver nitrate] |  |  | −1.1 ± 0.5 | 1.1 ± 0.3 | 1.6 ± 0.9 | 1.5 ± 1.2 |  | 
6 | O=P1(N(CCCl)CCCl)NCCCO1 (stereo not shown) [CP S9, cyclophosphamide] |  |  |  | 1.1 ± 0.3 | 2.0 ± 1 | 1.9 ± 1.6 |  | 
7 | [Cl][Cd][Cl] [CdCl2, cadmium dichloride] |  |  | 7.0 ± 1.5 | 4.3 ± 2.0 | 2.2 ± 1.3 | 1.3 ± 1.3 |  | 
8 | CCCCC(CC)COC(=O)c1ccccc1C(=O)OCC(CC)CCCC (stereo not shown) [DEHP, Bis(2-ethylhexyl)phthalate] |  |  |  | 1.9 ± 1.5 | 1.2 ± 0.1 |  |  | 
9 | C[C@@H]1C[C@H]2[C@@H]3CCC4=CC(=O)C=C[C@]4(C)[C@@]3(F)[C@@H](O)C[C@]2(C)[C@@]1(O)C(=O)CO [DEX, dexamethasone] |  |  |  | 1.4 ± 0.6 | 1.0 ± 0.1 |  |  | 
10 | CN(C)N=O [DMNA, dimethylnitrosamine] | −12 ± 1.5 | −1.8± |  |  |  |  | 1.2 ± 1.1 | −1.5 ± 1.5
11 | CC1=C[C@H]2O[C@@H]3[C@H](O)C[C@](C)([C@@]2(CO)[C@H](O)C1=O)[C@]31CO1 [DON, deoxynivalenol] |  |  | −1.4 ± 0.4 | 1.4 ± 0.4 | −1.5 ± 0.3 | −1.9 ± 0.2 |  | 
12 | CCO [EtOH, ethanol] |  |  | 34.3 ± 2.3 |  |  | 1.2 ± 1.0 |  | 
13 | Cn1c(N)nc2c3cccnc3ccc21 [IQ, 2-amino-3-methyl-3H-imidazo[4,5-F]quinoline] | 1.1 ± 1.8 | 1.0 ± 2.2 |  |  |  |  |  | 
14 | Cl[C@H]1[C@H](Cl)[C@@H](Cl)[C@@H](Cl)[C@H](Cl)[C@H]1Cl [LIN, Gamma-hexachlorocyclohexane] |  |  | 10.2 ± 7.6 | 2.3 ± 0.1 | −2.4 ± 0 | 3.4 ± 3.6 |  | 
15 | OC[C@@H](O)[C@@H](O)[C@H](O)[C@H](O)CO [MANNITOL] |  |  |  | 1.1 ± 0.7 | 1.2 ± 0.3 |  |  | 
16 | C=CC(=O)NCNC(=O)C=C [MBA, N,N′-methylenebisacrylamide] | 1.1 ± 1.9 |  |  |  |  |  | 1.0 ± 1.1 | 1.5 ± 2.1
17 | CCCCC(CC)COC(=O)c1ccccc1C(=O)O (stereo not shown) [MEHP, mono-(2-ethylhexyl) phthalate] | −1 ± 0.6 | −1.2 ± 0.1 |  |  |  |  | 1.6 ± 0.9 | 3.5 ± 2.1
18 | COc1c(C)c2c(c(O)c1C/C=C(\C)CCC(=O)O)C(=O)OC2 [MPA, mycophenolic acid] |  |  | 1.5 ± 0.9 |  |  | 1.1 ± 0.7 |  | 
19 | CN(Cc1cnc2nc(N)nc(N)c2n1)c1ccc(C(=O)N[C@@H](CCC(=O)O)C(=O)O)cc1 [MTX, methotrexate] |  |  |  | 1.4 ± 1.1 |  |  |  | 
20 | C[C@@H]1Cc2c(Cl)cc(C(=O)N[C@@H](Cc3ccccc3)C(=O)O)c(O)c2C(=O)O1 [OTA, ochratoxin A] |  |  | 32.9 ± 14.5 | −1.3 ± 0.1 | −2.5 ± 0.1 | −2.2 ± 0.1 |  | 
21 | Clc1cc(Cl)c(-c2cc(Cl)c(Cl)cc2Cl)cc1Cl [PCB153, polychlorinated biphenyl 153] | −1.2 ± 2.2 | 1.1 ± 1.4 |  |  |  |  | 2.0 ± 1.2 | 1.2 ± 3
22 | O=S(=O)(O)C(F)(F)C(F)(F)C(F)(F)C(F)(F)C(F)(F)C(F)(F)C(F)(F)C(F)(F)F [PFOS] | −1.5 ± 0.4 | −4.3 ± 0.2 |  |  |  |  | −1.1 ± 0.2 | 1.8 ± 1.5
23 | C[C@]12C=CC(=O)C=C1CC[C@@H]1[C@@H]2[C@@H](O)C[C@@]2(C)[C@H]1CC[C@]2(O)C(=O)CO [PRD, prednisolone] |  |  | 2.7 ± 1.9 | 3.9 ± 0.6 | 1.7 ± 0.1 | 1.0 ± 0.6 |  | 
24 | CCC(=O)Nc1ccc(Cl)c(Cl)c1 [PROP, N-(3,4-Dichloro-phenyl)propanamide] |  |  |  | 1.4 ± 0.1 |  | 1.3 ± 1 |  | 
25 | CCOC(N)=O [urethane] |  |  | 1.2 ± 0.4 | 1.1 ± 0.5 | 1.2 ± 0.3 |  |  | 
26 | arsenic trioxide [As2O3] |  |  | 41.2 ± 32.5 | 2.4 ± 1.1 | −1.1 ± 0.2 | 1.4 ± 0.3 |  | 
27 | ochratoxin A, S9-treated [OTA S9] |  |  | −13.8 ± 0.0 | −1.1 ± 0.5 | 2.0 ± 1.0 | 1.3 ± 1.8 |  | 
28 | tributyltin oxide [TBTO] |  |  | −1.1 ± 0.4 | −1.1 ± 0.8 | −1.5 ± 0.1 | 30.9 ± 8.5 |  | 
